Results as given in PubChem BioAssay AID256 (DTP/NCI, 2004).
Values joined by “and” are separate entries in the source; they are usually repeats but may differ in a detail not shown here. Equal entries are not always repeated. Toxic doses and inconclusive results are not listed.

Tested on: CD2F1 mice, L1210 leukemia ip, survival T/C
Experiment: NCI In Vivo Anticancer Drug Screen. Data for tumor model L1210 Leukemia (intraperitoneal) in CD2F1 (CDF1) mice
Settings: endpoint: mean survival time, higher = longer survival
Method in brief: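 Mice carrying a transplanted tumor received test compound or vehicle alone. The value is the measurement in the treated group divided by that in the vehicle-treated control group.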

[1] = dose: 100.0 mg/kg/injection, schedule: Q01DX009 (ip), vehicle: saline with Tween-80
[2] = dose: 100.0 mg/kg/injection, schedule: Q04DX003 (ip), vehicle: saline with Tween-80
[3] = dose: 200.0 mg/kg/injection, schedule: Q01DX009 (ip), vehicle: saline with Tween-80
[4] = dose: 200.0 mg/kg/injection, schedule: Q04DX003 (ip), vehicle: saline with Tween-80
[5] = dose: 400.0 mg/kg/injection, schedule: Q01DX009 (ip), vehicle: saline with Tween-80
[6] = dose: 400.0 mg/kg/injection, schedule: Q04DX003 (ip), vehicle: saline with Tween-80
[7] = dose: 12.5 mg/kg/injection, schedule: Q01DX009 (ip), vehicle: other
[8] = dose: 25.0 mg/kg/injection, schedule: Q01DX009 (ip), vehicle: other
[9] = dose: 50.0 mg/kg/injection, schedule: Q01DX009 (ip), vehicle: other
[10] = dose: 100.0 mg/kg/injection, schedule: Q01DX009 (ip), vehicle: other
[11] = dose: 200.0 mg/kg/injection, schedule: Q01DX009 (ip), vehicle: other
[12] = dose: 100.0 mg/kg/injection, schedule: Q04DX003 (ip), vehicle: saline
[13] = dose: 200.0 mg/kg/injection, schedule: Q04DX003 (ip), vehicle: saline
[14] = dose: 100.0 mg/kg/injection, schedule: Q01DX001 (ip), vehicle: saline with Tween-80
[15] = dose: 200.0 mg/kg/injection, schedule: Q01DX001 (ip), vehicle: saline with Tween-80
[16] = dose: 400.0 mg/kg/injection, schedule: Q01DX001 (ip), vehicle: saline with Tween-80
[17] = dose: 12.5 mg/kg/injection, schedule: Q01DX009 (ip), vehicle: saline
[18] = dose: 25.0 mg/kg/injection, schedule: Q01DX009 (ip), vehicle: saline
[19] = dose: 50.0 mg/kg/injection, schedule: Q01DX009 (ip), vehicle: saline
[20] = dose: 100.0 mg/kg/injection, schedule: Q01DX009 (ip), vehicle: saline
[21] = dose: 200.0 mg/kg/injection, schedule: Q01DX009 (ip), vehicle: saline

With `Cc1nc2c(c(=O)[nH]1)C(c1ccccc1)C(C)(C)O2` (configuration not stated) the T/C [1] was 96 % of control, the T/C [2] was 93 % of control and the T/C [3] was 93 % of control. The T/C [4] was 96 % of control, the T/C [5] was 93 % of control and the T/C [6] was 93 % of control.
`O=C1c2ccccc2C(=O)c2c(O)c(CCCN3C(=O)c4ccccc4C3=O)cc(O)c21` was tested, and the T/C [7] was 89 % of control, the T/C [8] was 87 % of control and the T/C [9] was 87 % of control. The T/C [10] was 89 % of control and the T/C [11] was 97 % of control.
For `Cn1c(N)n[nH]c1=S`, the T/C [2] was 93 % of control, the T/C [4] was 108 % of control and the T/C [6] was 88 % of control.
For `Nc1cc(Cl)nnc1Cl`, the T/C [9] was 97 % of control, the T/C [10] was 103 % of control and the T/C [12] was 98 % of control. The T/C [11] was 97 % of control and the T/C [13] was 101 % of control.
`O=C1OC(=O)C2CC(Br)C(Br)CC12` (configuration not stated) was tested, and the T/C [1] was 95 % of control, the T/C [3] was 98 % of control and the T/C [5] was 91 % of control.
With `CCOC(=O)C(NC(N)=O)C(=O)OCC` the T/C (dose: 25.0 mg/kg/injection, schedule: Q01DX009 (ip), vehicle: water) was 91 % of control, the T/C (dose: 50.0 mg/kg/injection, schedule: Q01DX009 (ip), vehicle: water) was 91 % of control and the T/C (dose: 100.0 mg/kg/injection, schedule: Q01DX009 (ip), vehicle: water) was 93 % of control. For the same molecule, the T/C (dose: 200.0 mg/kg/injection, schedule: Q01DX009 (ip), vehicle: water) was 89 % of control and the T/C (dose: 400.0 mg/kg/injection, schedule: Q01DX009 (ip), vehicle: water) was 93 % of control.
With `CC(=O)OCC(OC(C)=O)C1OC(OC2CCCCC2)C(OC(C)=O)C(OC(C)=O)C1OC(C)=O` (configuration not stated) the T/C [14] was 93 % of control, the T/C [15] was 98 % of control and the T/C [16] was 88 % of control.
With `CC(C)CCOC(=O)CN(CC(=O)OCCC(C)C)c1ccccc1` the T/C [1] was 89 % of control, the T/C [2] was 95 % of control and the T/C [3] was 91 % of control. For the same molecule, the T/C [4] was 97 % of control, the T/C [5] was 97 % of control and the T/C [6] was 105 % of control.
In the case of `Nc1nc(-c2cccc([N+](=O)[O-])c2)c(N=Nc2cccc([N+](=O)[O-])c2)s1`, the T/C [14] is reported as 89 % of control and the T/C [16] is reported as 90 % of control.
With `c1ccc2c(c1)cnc1cc3c(cc12)ncc1ccccc13` the T/C (dose: 100.0 mg/kg/injection, schedule: Q01DX001 (ip), vehicle: saline) was 98 % of control, the T/C (dose: 200.0 mg/kg/injection, schedule: Q01DX001 (ip), vehicle: saline) was 106 % of control and the T/C (dose: 400.0 mg/kg/injection, schedule: Q01DX001 (ip), vehicle: saline) was 116 % of control.
In the case of `Clc1ccccc1-c1nc2ccccc2s1`, the T/C [14] is reported as 91 % of control, the T/C [2] is reported as 97 % of control and the T/C [15] is reported as 91 % of control. For the same molecule, the T/C [4] was 96 % of control, the T/C [16] was 91 % of control and the T/C [6] was 92 % of control.
In the case of `O=c1[nH]c(=O)c2nc(-c3cccnc3)cnc2[nH]1`, the T/C [17] is reported as 98 % of control and 103 % of control, the T/C [18] is reported as 101 % of control and 102 % of control and the T/C [19] is reported as 93 % of control and 104 % of control. The T/C [20] was 98 % of control and 110 % of control, the T/C [21] was 101 % of control and 110 % of control and the T/C (dose: 400.0 mg/kg/injection, schedule: Q01DX009 (ip), vehicle: saline) was 114 % of control and 102 % of control.
For `CSc1ccc(C2=CCCCC2)cc1`, the T/C [12] was 91 % of control, the T/C [13] was 91 % of control and the T/C (dose: 400.0 mg/kg/injection, schedule: Q04DX003 (ip), vehicle: saline) was 96 % of control.
With `O=C1C(c2ccccc2)=C2C(=C1c1ccccc1)c1cccc3cccc2c13` the T/C [2] was 92 % of control, the T/C [4] was 90 % of control and the T/C [6] was 92 % of control.
With `CC(=O)OC1CCC2(C)C(=CCC3C4CC(C=O)=C(Cl)NC4(C)CCC32)C1` (configuration not stated) the T/C (dose: 25.0 mg/kg/injection, schedule: Q01DX001 (ip), vehicle: saline with Tween-80) was 98 % of control, the T/C (dose: 50.0 mg/kg/injection, schedule: Q01DX001 (ip), vehicle: saline with Tween-80) was 95 % of control and the T/C [14] was 92 % of control and 101 % of control. The T/C [16] was 87 % of control.
In the case of `NC(=O)Oc1cc(OC(N)=O)cc(N(CCCl)CCCl)c1`, the T/C [7] is reported as 103 % of control, the T/C (dose: 25.0 mg/kg/injection, schedule: Q01DX001 (ip), vehicle: water) is reported as 98 % of control and the T/C [8] is reported as 114 % of control. For the same molecule, the T/C (dose: 50.0 mg/kg/injection, schedule: Q01DX001 (ip), vehicle: water) was 108 % of control, the T/C [9] was 111 % of control and the T/C (dose: 100.0 mg/kg/injection, schedule: Q01DX001 (ip), vehicle: water) was 108 % of control. The T/C [10] was 116 % of control, the T/C (dose: 200.0 mg/kg/injection, schedule: Q01DX001 (ip), vehicle: water) was 117 % of control and the T/C [11] was 104 % of control. The T/C (dose: 400.0 mg/kg/injection, schedule: Q01DX001 (ip), vehicle: water) was 120 % of control.
For `C[Si](c1ccccc1)c1ccccc1`, the T/C (dose: 100.0 mg/kg/injection, schedule: Q01DX001 (ip), vehicle: other) was 97 % of control, the T/C (dose: 200.0 mg/kg/injection, schedule: Q01DX001 (ip), vehicle: other) was 100 % of control and the T/C (dose: 400.0 mg/kg/injection, schedule: Q01DX001 (ip), vehicle: other) was 100 % of control.
With `Nc1ncnc2c1ncn2C1OC2COP(=O)(O)OC2C1OCc1ccccc1` (configuration not stated) the T/C (dose: 100.0 mg/kg/injection, schedule: Q01DX005 (ip), vehicle: saline) was 103 % of control and the T/C (dose: 200.0 mg/kg/injection, schedule: Q01DX005 (ip), vehicle: saline) was 94 % of control.
In the case of `Nc1cc(OCc2ccccc2)c2n[nH]nc2n1`, the T/C (dose: 25.0 mg/kg/injection, schedule: Q01DX005 (ip), vehicle: other) is reported as 96 % of control, the T/C (dose: 50.0 mg/kg/injection, schedule: Q01DX005 (ip), vehicle: other) is reported as 92 % of control and the T/C (dose: 200.0 mg/kg/injection, schedule: Q01DX005 (ip), vehicle: other) is reported as 94 % of control. For the same molecule, the T/C (dose: 400.0 mg/kg/injection, schedule: Q01DX005 (ip), vehicle: other) was 105 % of control.
With `COC(=O)c1ccccc1NCCNc1ccccc1C(=O)OC` the T/C (dose: 50.0 mg/kg/injection, schedule: Q04DX002 (ip), vehicle: saline with Tween-80) was 100 % of control, the T/C (dose: 200.0 mg/kg/injection, schedule: Q04DX002 (ip), vehicle: saline with Tween-80) was 95 % of control and the T/C (dose: 400.0 mg/kg/injection, schedule: Q04DX002 (ip), vehicle: saline with Tween-80) was 88 % of control.
For `Cc1ccc(NC(=O)c2cccc(Cl)c2)c(C)c1`, the T/C [1] was 100 % of control, the T/C [2] was 96 % of control and the T/C [3] was 94 % of control. The T/C [4] was 100 % of control, the T/C [5] was 96 % of control and the T/C [6] was 93 % of control.
`Cc1cn(C2CC3[O][Sn]([c]4ccccc4)([c]4ccccc4)[O]CC3O2)c(=O)[nH]c1=O` (configuration not stated) was tested, and the T/C (dose: 0.75 mg/kg/injection, schedule: Q01DX005 (ip), vehicle: other) was 90 % of control, the T/C (dose: 0.78 mg/kg/injection, schedule: Q01DX005 (ip), vehicle: other) was 96 % of control and 100 % of control and the T/C (dose: 1.5 mg/kg/injection, schedule: Q01DX005 (ip), vehicle: other) was 90 % of control. The T/C (dose: 1.5 mg/kg/injection, schedule: Q01DX005 (ip), vehicle: saline) was 89 % of control, the T/C (dose: 3.0 mg/kg/injection, schedule: Q01DX005 (ip), vehicle: other) was 95 % of control and the T/C (dose: 3.0 mg/kg/injection, schedule: Q01DX005 (ip), vehicle: saline) was 89 % of control. For the same molecule, the T/C (dose: 6.0 mg/kg/injection, schedule: Q01DX005 (ip), vehicle: saline) was 97 % of control, the T/C (dose: 6.25 mg/kg/injection, schedule: Q01DX005 (ip), vehicle: other) was 203 % of control and 102 % of control and 105 % of control and the T/C (dose: 6.25 mg/kg/injection, schedule: Q01DX009 (ip), vehicle: saline) was 109 % of control. For the same molecule, the T/C (dose: 12.0 mg/kg/injection, schedule: Q01DX005 (ip), vehicle: other) was 100 % of control, the T/C (dose: 12.0 mg/kg/injection, schedule: Q01DX005 (ip), vehicle: saline) was 104 % of control and the T/C [17] was 107 % of control. For the same molecule, the T/C (dose: 24.0 mg/kg/injection, schedule: Q01DX005 (ip), vehicle: other) was 104 % of control, the T/C (dose: 24.0 mg/kg/injection, schedule: Q01DX005 (ip), vehicle: saline) was 103 % of control and the T/C [18] was 113 % of control. For the same molecule, the T/C [19] was 110 % of control, the T/C [20] was 103 % of control and the T/C [21] was 115 % of control.
For `NC(CSCc1ccccc1)C(=O)OCc1ccccc1` (configuration not stated), the T/C [2] was 104 % of control, the T/C [4] was 102 % of control and the T/C [6] was 104 % of control.
